Ten compounds from ChEMBL document CHEMBL1201862, “PubChem BioAssay data set” (2004) can be followed below.

Structures are written as SMILES.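 Tested at 5 concentrations; 48 h exposure; 96-well plates; endpoints linearly interpolated, else capped at highest concentration. The concentration for 50% growth inhibition is given as GI50.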 Activity calls are given as the source filed them. No stated cut-off is given here; in the data, active = GI50 up to about 1.1 µM and inactive = higher.

Test systems include ACHN; COLO 205; EKVX; HOP-62; HT-29; K562; MDA-MB-231; NCI-H522; PC-3; SK-MEL-28; SK-OV-3; SN12C; T47D; U-251; UACC-62.
Experiment in all cases: growth of human tumour cells (NCI), 48 h

On to `NS(=O)(=O)c1ccc(/N=N/c2ncccc2O)cc1`, for which the GI50 in the experiment on ACHN is > 100 µM (inactive); in the experiment on COLO 205, > 100 µM (inactive); in the experiment with EKVX, > 100 µM (inactive); with HOP-62, > 100 µM (inactive); in the experiment on HT-29 it was > 100 µM (inactive); in the experiment on K562 it was 40.2 µM (inactive). The GI50 with MDA-MB-231 is > 100 µM (inactive); in the experiment on NCI-H522 it was 44.9 µM (inactive); with PC-3, > 100 µM (inactive); in the experiment with SK-MEL-28 it was > 100 µM (inactive); in the experiment with SK-OV-3 it was > 100 µM (inactive); in the experiment on SN12C, 71.8 µM (inactive). In addition, the GI50 with T47D, in the experiment on U-251 and with UACC-62 was > 100 µM (inactive) in each case.
With `Cc1nc(O)c(Cc2ccccc2O)c(-c2ccccc2)n1`, the GI50 in the experiment on ACHN is > 100 µM (inactive); in the experiment with COLO 205, > 100 µM (inactive); with EKVX it was 19.1 µM (inactive); in the experiment with HOP-62, > 100 µM (inactive); in the experiment with HT-29 it was 87.5 µM (inactive); with K562, > 100 µM (inactive). Further, the GI50 in the experiment on MDA-MB-231 was 98.9 µM (inactive); in the experiment on NCI-H522, > 100 µM (inactive); in the experiment on PC-3, > 100 µM (inactive); in the experiment with SK-MEL-28, > 100 µM (inactive); with SK-OV-3 it was > 100 µM (inactive); in the experiment with SN12C, > 100 µM (inactive). Besides, the GI50 in the experiment on T47D is 78.5 µM (inactive); in the experiment with U-251, > 100 µM (inactive); in the experiment with UACC-62 it was > 100 µM (inactive).
Turning to `O=C1N[C@@H](c2c[nH]c3ccc(Br)cc23)C(=O)N[C@H]1c1c[nH]c2ccc(Br)cc12`, the GI50 in the experiment with ACHN is 3.68 µM (inactive); with COLO 205, 7.21 µM (inactive); with EKVX, 13 µM (inactive); with HOP-62, 12 µM (inactive); in the experiment with HT-29 it was 7.5 µM (inactive); in the experiment on K562, 4.47 µM (inactive). Moreover, the GI50 in the experiment with MDA-MB-231 is 8.87 µM (inactive); in the experiment on NCI-H522 it was 6.61 µM (inactive); in the experiment on PC-3, 3.6 µM (inactive); in the experiment on SK-MEL-28 it was 15.1 µM (inactive); in the experiment on SK-OV-3, 15.9 µM (inactive); in the experiment on SN12C it was 12.4 µM (inactive). In addition, the GI50 with T47D was 10.8 µM (inactive); with U-251 it was 9.35 µM (inactive); in the experiment with UACC-62, 7.26 µM (inactive).
`NC(=O)c1ccc(NCC2=CC(=O)C=CC2=O)cc1`: the GI50 is 17.7 µM (inactive) with ACHN; 19.1 µM (inactive) in the experiment on COLO 205; 16.9 µM (inactive) with EKVX; > 100 µM (inactive) with HOP-62; 22.1 µM (inactive) in the experiment on HT-29; 21.8 µM (inactive) with K562. Moreover, the GI50 with MDA-MB-231 was 20.1 µM (inactive); in the experiment with NCI-H522, 16.3 µM (inactive); in the experiment with PC-3 it was 18.6 µM (inactive); in the experiment on SK-MEL-28, 20.5 µM (inactive); in the experiment with SK-OV-3, > 100 µM (inactive); with SN12C it was 20.2 µM (inactive). Besides, the GI50 in the experiment with T47D was 28.1 µM (inactive); with U-251, 22 µM (inactive); in the experiment on UACC-62, 20.4 µM (inactive).
For the compound `Cc1cc(C)c2c(=O)n(CN3CCC(C#N)(c4ccccc4)CC3)sc2n1`, the GI50 in the experiment with ACHN is 21.7 µM (inactive); in the experiment on COLO 205 it was 30.8 µM (inactive); in the experiment on EKVX, 52.7 µM (inactive); in the experiment with HOP-62, 44.1 µM (inactive); with HT-29, 39.9 µM (inactive); in the experiment on K562, 54 µM (inactive). The GI50 in the experiment with MDA-MB-231 was > 100 µM (inactive); in the experiment on NCI-H522, 14.3 µM (inactive); in the experiment on PC-3, 76.7 µM (inactive); in the experiment on SK-MEL-28, 42.5 µM (inactive); with SK-OV-3 it was > 100 µM (inactive); in the experiment with SN12C, > 100 µM (inactive). In addition, the GI50 in the experiment on T47D, in the experiment on U-251 and in the experiment on UACC-62 was > 100 µM (inactive) in each case.
As for `CC(=O)N(CN1C(=O)CCC1C(=O)O)c1ccccc1` (stereo not given), the GI50 was > 56.6 µM (inactive) in the experiment on ACHN; > 58.6 µM (inactive) with COLO 205; > 53.8 µM (inactive) in the experiment on EKVX; > 55.6 µM (inactive) in the experiment with HOP-62; > 55 µM (inactive) with HT-29; > 53 µM (inactive) in the experiment with K562. For the same compound, the GI50 is > 48.8 µM (inactive) with MDA-MB-231; > 53 µM (inactive) in the experiment with NCI-H522; > 55.8 µM (inactive) with PC-3; > 100 µM (inactive) in the experiment on SK-MEL-28; > 56.1 µM (inactive) in the experiment on SK-OV-3; > 57.7 µM (inactive) in the experiment on SN12C. In addition, the GI50 in the experiment with T47D was > 57.3 µM (inactive); in the experiment on U-251 it was > 100 µM (inactive); with UACC-62, > 51.9 µM (inactive).
On to `CCc1cccc(C(C)C)c1NC1=C([n+]2ccc(C)cc2)C(=O)c2ccccc2C1=O.[O-][Cl+3]([O-])([O-])[O-]`, for which the GI50 is 0.275 µM (active) in the experiment on ACHN; 1.1 µM (active) with COLO 205; 0.817 µM (active) in the experiment with EKVX; 0.804 µM (active) in the experiment with HOP-62; 1.82 µM (inactive) with HT-29; 1.91 µM (inactive) in the experiment with K562. In addition, the GI50 is 2.21 µM (inactive) in the experiment on MDA-MB-231; 1.32 µM (inactive) in the experiment with NCI-H522; 1.54 µM (inactive) in the experiment on PC-3; 7.64 µM (inactive) with SK-MEL-28; 2.64 µM (inactive) in the experiment with SK-OV-3; 0.475 µM (active) in the experiment on SN12C. Also, the GI50 was 0.13 µM (active) in the experiment on T47D, 0.887 µM (active) in the experiment on U-251 and 0.822 µM (active) in the experiment with UACC-62.
`O=C/C=C/c1ccco1`: the GI50 in the experiment with ACHN, in the experiment with COLO 205, in the experiment on EKVX, with HOP-62, with HT-29 and with K562 was > 100 µM (inactive) throughout. Besides, the GI50 in the experiment with MDA-MB-231, with NCI-H522, with PC-3, with SK-MEL-28, in the experiment with SK-OV-3 and in the experiment on SN12C was > 100 µM (inactive) each time. In addition, the GI50 with T47D is > 100 µM (inactive); in the experiment with U-251 it was 96.8 µM (inactive); with UACC-62, > 100 µM (inactive).
As for `COC(=O)NC(Cc1ccccc1)NC(=O)OC(C)(C)C` (stereo not given), the GI50 with ACHN, in the experiment with COLO 205, in the experiment on EKVX, in the experiment with HOP-62, in the experiment with HT-29 and with K562 was > 100 µM (inactive) in each case. In addition, the GI50 in the experiment with MDA-MB-231 is > 100 µM (inactive); with NCI-H522 it was 96.4 µM (inactive); with PC-3, > 100 µM (inactive); in the experiment with SK-MEL-28 it was > 100 µM (inactive); with SK-OV-3 it was > 100 µM (inactive); with SN12C, > 100 µM (inactive). The GI50 in the experiment on T47D, in the experiment on U-251 and in the experiment on UACC-62 was > 100 µM (inactive) throughout.
For `C=C(C)C(O)C(O)c1c(OC)ccc2ccc(=O)oc12` (stereo not given), the GI50 in the experiment on ACHN, with COLO 205, in the experiment with EKVX, with HOP-62, in the experiment on HT-29 and in the experiment on K562 was > 100 µM (inactive) each time. In addition, the GI50 with MDA-MB-231, in the experiment with NCI-H522, in the experiment with PC-3, in the experiment on SK-MEL-28, with SK-OV-3 and in the experiment on SN12C was > 100 µM (inactive) each time. Moreover, the GI50 in the experiment on T47D, with U-251 and in the experiment on UACC-62 was > 100 µM (inactive) throughout.
